Some test systems named below: ACHN; CAKI-1; COLO 205; HOP-62; IGROV-1; K562; M14; MDA-MB-231; MDA-MB-435; NCI-H460; OVCAR-5; PC-3; RXF 393; SF-539; U-251; HCC 2998; Malme-3M; UACC-62.
Test in all cases: DTP human tumour cell line panel, 48 h

SMILES strings stand for the structures.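 Growth conditions: 96-well plates. Treatment: test compound, 48 hours, 5 concentrations. Analysis: linear interpolation between bracketing concentrations; unreached endpoints set to highest concentration. GI50 marks 50% less growth.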 The source made the active and inactive calls. No stated cut-off is given here; in the data, active = GI50 up to about 1.1 µM and inactive = higher. Some results are limits rather than exact numbers.

As usually defined, the GI50 is the concentration at which growth is held to half of that of the control.

In the case of `Sc1nnc(CCCCCCCCc2nnc(S)o2)o1`, the GI50 with ACHN, in the experiment with CAKI-1, in the experiment on COLO 205, in the experiment with HOP-62, in the experiment on IGROV-1 and in the experiment with K562 was > 100 µM (inactive) each time. In addition, the GI50 in the experiment with M14, in the experiment with MDA-MB-231, with MDA-MB-435, in the experiment with NCI-H460, with OVCAR-5 and in the experiment with PC-3 was > 100 µM (inactive) each time. The GI50 in the experiment on RXF 393, in the experiment on SF-539 and with U-251 was > 100 µM (inactive) throughout.
`CCCc1c2c([nH]c(=O)c1C)C(=O)c1[nH]c(=O)c(C)c(CCC)c1C2=O`: the GI50 is 7.48 µM (inactive) in the experiment with ACHN; 25.8 µM (inactive) in the experiment on COLO 205; 38.4 µM (inactive) in the experiment on HCC 2998; > 100 µM (inactive) in the experiment on HOP-62; 23.6 µM (inactive) in the experiment with IGROV-1; 17.4 µM (inactive) with K562. The GI50 is 1.66 µM (inactive) in the experiment on M14; 3.73 µM (inactive) in the experiment with Malme-3M; 14.5 µM (inactive) with NCI-H460; 35.6 µM (inactive) in the experiment on OVCAR-5; 19.4 µM (inactive) in the experiment on RXF 393; > 100 µM (inactive) in the experiment on SF-539.
As to `COc1nc(OC)c2c(=O)oc(-c3ccccc3)cc2n1`, the GI50 in the experiment with ACHN, with CAKI-1, in the experiment with HCC 2998, with IGROV-1, with K562 and in the experiment with Malme-3M was > 100 µM (inactive) in each case. For the same compound, the GI50 with OVCAR-5, in the experiment with RXF 393, in the experiment with SF-539, in the experiment on U-251 and in the experiment on UACC-62 was > 100 µM (inactive) throughout.
As to `Cc1ccc(S(=O)(=O)OCCC2CN(C(=O)OCc3ccccc3)C(C)(C)O2)cc1` (stereo unspecified), the GI50 with ACHN was 12.9 µM (inactive); with CAKI-1, 60.1 µM (inactive); in the experiment with COLO 205, 7.38 µM (inactive); with HCC 2998 it was 6.07 µM (inactive); in the experiment on IGROV-1, 7.08 µM (inactive); in the experiment with K562, 8.63 µM (inactive). Besides, the GI50 is 7.38 µM (inactive) with M14; > 100 µM (inactive) in the experiment on MDA-MB-231; 3.61 µM (inactive) with MDA-MB-435; 8.2 µM (inactive) in the experiment with Malme-3M; 3.47 µM (inactive) with NCI-H460; > 100 µM (inactive) with OVCAR-5. The GI50 with PC-3 was 4.79 µM (inactive); in the experiment with RXF 393 it was 6.4 µM (inactive); in the experiment with SF-539, 12.5 µM (inactive); in the experiment on U-251, 16.7 µM (inactive); in the experiment with UACC-62, 10.2 µM (inactive).
As for `CCCCc1c(C(=O)OC(C)(C)C)cc(C#Cc2cc(C(=O)OC(C)(C)C)c(CCCC)c(C(=O)OC(C)(C)C)c2)cc1C(=O)OC(C)(C)C`, the GI50 in the experiment with ACHN, in the experiment on CAKI-1, in the experiment with COLO 205, with HCC 2998, in the experiment with HOP-62 and in the experiment with IGROV-1 was > 100 µM (inactive) throughout. Also, the GI50 in the experiment on M14, in the experiment with MDA-MB-231, with MDA-MB-435, in the experiment on Malme-3M, in the experiment on NCI-H460 and with OVCAR-5 was > 100 µM (inactive) in each case. Further, the GI50 in the experiment with PC-3, in the experiment on U-251 and in the experiment on UACC-62 was > 100 µM (inactive) each time.
Take `COC(=N)C12C(N)=NC(OC)(OC)C1(C#N)C21C(=O)N(c2ccccc2)N=C1C` (stereo unspecified): the GI50 in the experiment on ACHN, with CAKI-1, in the experiment on COLO 205, in the experiment on HCC 2998, in the experiment with HOP-62 and in the experiment with IGROV-1 was > 100 µM (inactive) in each case. The GI50 with K562, in the experiment with M14, in the experiment with MDA-MB-231, with MDA-MB-435, in the experiment on Malme-3M and with NCI-H460 was > 100 µM (inactive) each time. Also, the GI50 in the experiment with OVCAR-5, in the experiment on PC-3, with RXF 393, with SF-539, in the experiment on U-251 and with UACC-62 was > 100 µM (inactive) in each case.
In the case of `Cc1cc2c(O)c(c1)COCc1cc(C)cc(c1O)COCc1cc(C)cc(c1O)COC2`, the GI50 in the experiment on ACHN is > 100 µM (inactive); in the experiment on CAKI-1, > 100 µM (inactive); in the experiment on COLO 205, 96.2 µM (inactive); in the experiment with HCC 2998 it was > 100 µM (inactive); in the experiment on HOP-62, > 100 µM (inactive); in the experiment with K562, > 100 µM (inactive). For the same compound, the GI50 is > 100 µM (inactive) in the experiment on M14; 72.8 µM (inactive) in the experiment on MDA-MB-231; > 100 µM (inactive) with MDA-MB-435; > 100 µM (inactive) in the experiment on Malme-3M; 92 µM (inactive) in the experiment with NCI-H460; > 100 µM (inactive) in the experiment on OVCAR-5. The GI50 with PC-3, in the experiment with RXF 393, with SF-539, with U-251 and in the experiment on UACC-62 was > 100 µM (inactive) throughout.
On to `C=C(C)CCC(O)[C@](C)(O)[C@H]1[C@H](O)C[C@@]2(C)[C@@H]3CCc4c(cc(OC5OC(CO)C(O)C(O)C5O)c(O)c4C)C3(C)C(=O)C[C@]12C` (stereo partly specified), for which the GI50 with ACHN, in the experiment with CAKI-1, with COLO 205, in the experiment with HCC 2998, with HOP-62 and in the experiment with IGROV-1 was > 100 µM (inactive) throughout. In addition, the GI50 with K562, in the experiment on M14, in the experiment with MDA-MB-231, with MDA-MB-435, in the experiment with Malme-3M and in the experiment with NCI-H460 was > 100 µM (inactive) each time. Moreover, the GI50 in the experiment with OVCAR-5, with PC-3, in the experiment on RXF 393, in the experiment on SF-539, in the experiment with U-251 and in the experiment with UACC-62 was > 100 µM (inactive) each time.
Regarding `CCOP(=O)(OCC)C(Nc1cccc([N+](=O)[O-])c1)c1ccccc1` (stereo unspecified), the GI50 in the experiment with ACHN was > 100 µM (inactive); with CAKI-1, > 100 µM (inactive); in the experiment on COLO 205 it was 34.6 µM (inactive); with HCC 2998, > 100 µM (inactive); in the experiment with HOP-62, > 100 µM (inactive); with IGROV-1, 0.108 µM (active). For the same compound, the GI50 in the experiment on K562 is 38.2 µM (inactive); in the experiment with M14 it was > 100 µM (inactive); in the experiment on MDA-MB-231 it was 58.9 µM (inactive); in the experiment on MDA-MB-435, > 100 µM (inactive); with Malme-3M, 40.1 µM (inactive); in the experiment on NCI-H460, 80 µM (inactive). Moreover, the GI50 was > 100 µM (inactive) in the experiment with OVCAR-5; 38.6 µM (inactive) in the experiment with PC-3; 88.3 µM (inactive) in the experiment on RXF 393; > 100 µM (inactive) in the experiment with SF-539; > 100 µM (inactive) in the experiment on U-251; 58.2 µM (inactive) in the experiment with UACC-62.

Source of the values: ChEMBL document CHEMBL1201862, “PubChem BioAssay data set” (2004).
